Target: Ezrin (Homo sapiens, UniProt P15311)
Assay: SPR Assay
Conditions: pH 5.5; 25 °C
Procedure: Recombinant ezrin (Hypermol) was diluted to […] in sodium acetate buffer (pH 5.5, 10 mM) immobilized for 350 s on a CM5 Sensor Chip (Biacore) by standard amine coupling to yield around 10,000 response units. The reference flow cell was prepared exactly as the ligand flow cell, although sodium acetate buffer only (pH 5.5, 10 mM) was used instead of recombinant ezrin. Binding interactions were monitored at 25 °C with a flow rate of […] in HBSEP/1% DMSO as running buffer. Disorazole A was injected at […]. Disorazole Z was injected at […]. The contact time for each compound was 120 s and the dissociation time 500 s. To rule out non-specific binding, a negative control protein was immobilized on a CM5 Sensor Chip (Biacore) by standard amine coupling: BSA (Sigma) was diluted to […] in sodium acetate buffer (pH 4.5, 10 mM) and immobilized for 90 s to yield around 5,000 response units. The reference flow cell was prepared with sodium acetate buffer (pH 4.5).

Sequence of Ezrin (P15311 whole entry): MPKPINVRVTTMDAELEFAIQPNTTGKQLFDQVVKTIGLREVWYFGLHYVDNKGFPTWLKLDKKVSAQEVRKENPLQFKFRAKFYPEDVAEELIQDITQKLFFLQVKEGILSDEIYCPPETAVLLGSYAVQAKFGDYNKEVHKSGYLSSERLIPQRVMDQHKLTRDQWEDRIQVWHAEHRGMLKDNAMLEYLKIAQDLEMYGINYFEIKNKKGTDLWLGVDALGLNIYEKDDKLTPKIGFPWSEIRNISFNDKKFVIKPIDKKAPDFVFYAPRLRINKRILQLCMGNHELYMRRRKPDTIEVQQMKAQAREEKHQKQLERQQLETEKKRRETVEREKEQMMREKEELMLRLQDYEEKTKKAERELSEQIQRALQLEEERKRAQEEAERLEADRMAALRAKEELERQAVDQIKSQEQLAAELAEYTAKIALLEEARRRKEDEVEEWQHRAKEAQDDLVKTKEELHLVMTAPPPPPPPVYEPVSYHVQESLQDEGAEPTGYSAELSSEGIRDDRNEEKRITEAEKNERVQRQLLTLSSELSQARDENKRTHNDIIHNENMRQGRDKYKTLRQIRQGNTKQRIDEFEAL

| SMILES | Kd [µM] |
| --- | --- |
| C/C=C/[C@H](O)C(C)(C(=O)OC)[C@@H]1C\C=C/C=C/C=C/c2nc(co2)C(=O)O[C@H](C(C)(C(=O)OC)[C@@H](O)/C=C/C)C\C=C/C=C/C=C/c2nc(co2)C(=O)O1 (some centres not stated) [Disorazole Z] | 74.9 |
| C/C=C/[C@H](O)C(C)(C)[C@@H]1CCC[C@H]2O[C@H]2CC[C@@H]2O[C@@H]2c2nc(co2)C(=O)O[C@H](C(C)(C)[C@@H](O)/C=C/C)C\C=C/C(C)=C\C=C/[C@H](OC)Cc2nc(co2)C(=O)O1 [Disorazole A] | 22 |

— BindingDB's records for doi:10.1016/j.chembiol.2016.12.011 (Saarland University, 2017)
